Results reported in ChEMBL document CHEMBL5500324, “The potential of marine-derived piperazine alkaloids: Sources, structures and bioactivities” (Eur J Med Chem, 2024).
Values after ≈ are worked out from the molar mass of the structure shown.

Legend:
HepG2 [1] = assay: Cytotoxicity against human HepG2 cells assessed as reduction in cell viability incubated for 72 hrs by SRB assay; format: functional, cell-based; conditions: HepG2, 72 h
SF-268 = assay: Cytotoxicity against human SF-268 cells assessed as reduction in cell viability incubated for 72 hrs by SRB assay; format: functional, cell-based; conditions: SF-268, 72 h
[2] = Cytotoxicity against human Huh-7 cells assessed as reduction in cell growth; format: toxicity, cell-based
HepG2 [3] = assay: Cytotoxicity against human HepG2 cells assessed as reduction in cell growth; format: functional, cell-based
BGC-823 = assay: Cytotoxicity against human BGC-823 cells assessed as reduction in cell growth measured after 72 hrs by MTT assay; format: functional, cell-based; conditions: BGC-823, 72 h
K562 [4] = assay: Antiproliferative activity against human K562 cells assessed as reduction in cell growth incubated for 72 hrs by MTT assay; format: functional, cell-based; conditions: K562, 72 h
HL-60 = assay: Antiproliferative activity against human HL-60 cells assessed as reduction in cell growth incubated for 72 hrs by MTT assay; format: functional, cell-based; conditions: HL-60, 72 h
HeLa = assay: Cytotoxicity against human HeLa cells assessed as reduction in cell viability measured for 24 hrs by MTT assay; format: functional, cell-based
MCF7 [5] = assay: Cytotoxicity against human MCF7 cells assessed as reduction in cell growth measured after 72 hrs by MTT assay; format: functional, cell-based; conditions: MCF7, 72 h
HCT-116 = assay: Antiproliferative activity against human HCT-116 cells assessed as reduction in cell viability incubated for 24 hrs by MTT assay; format: functional, cell-based; conditions: HCT-116, 24 h
A549 [6] = assay: Cytotoxicity against human A549 assessed as inhibition of cell growth incubated for 48 hrs; format: functional, cell-based; conditions: A549, 48 h
SK-MEL-28 = assay: Cytotoxicity against human SK-MEL-28 assessed as inhibition of cell growth incubated for 48 hrs; format: functional, cell-based; conditions: SK-MEL-28, 48 h
QG-56 = assay: Cytotoxicity against human QG-56 cells assessed as reduction in cell growth incubated for 24 hrs by MTT assay; format: functional, cell-based; conditions: QG-56, 24 h
P388 [7] = assay: Cytotoxicity against mouse P388 cells assessed as inhibition of cell growth incubated for 48 hrs; format: functional, cell-based; conditions: P388, 48 h
BC = assay: Cytotoxicity against human BC cells assessed as inhibition of cell growth; format: functional, cell-based
DU-145 = assay: Cytotoxicity against human DU-145 cells assessed as cell growth inhibition measured after 48 hrs by MTT assay; format: functional, cell-based; conditions: DU-145, 48 h
HT-29 = assay: Cytotoxicity against human HT-29 assessed as inhibition of cell growth incubated for 48 hrs; format: functional, cell-based; conditions: HT-29, 48 h
[8] = Cytotoxicity against human Huh7.5 cells assessed as reduction in cell viability incubated for 72 hrs by CCK-8 assay; format: toxicity, cell-based, Huh-7.5
PC-3 = assay: Cytotoxicity against human PC-3 cells assessed as reduction in cell viability measured after 72 hrs by MTT assay; format: functional, cell-based; conditions: PC-3, 72 h
U-937 = assay: Cytotoxicity against human U-937 cells assessed as reduction in cell viability incubated for 72 hrs by MTT assay; format: functional, cell-based; conditions: U-937, 72 h
NCI-H460 = assay: Cytotoxicity against human NCI-H460 cells assessed as reduction in cell viability incubated for 48 hrs by MTT assay; format: functional, cell-based; conditions: NCI-H460, 48 h
A549 [9] = assay: Cytotoxicity against human A549 cells assessed as reduction in cell viability measured after 24 hrs by MTT assay; format: functional, cell-based; conditions: A549, 24 h
NCI-H23 = assay: Cytotoxicity against human NCI-H23 cells assessed as reduction in cell viability incubated for 48 hrs by MTT assay; format: functional, cell-based; conditions: NCI-H23, 48 h
[10] = Cytotoxicity against human BEAS-2B cells incubated for 72 hrs measured by MTT assay; format: toxicity, cell-based
[11] = Cytotoxicity against human A2780cis cells assessed as cell growth inhibition by SRB assay; format: functional, cell-based
L5178Y = assay: Cytotoxicity against mouse L5178Y cells assessed as reduction in cell growth by MTT assay; format: functional, cell-based
K562 [12] = assay: Cytotoxicity against human K562 cells assessed as reduction in cell growth by MTT assay; format: functional, cell-based
P388 [13] = assay: Cytotoxicity against mouse P388 cells assessed as cell growth inhibition; format: functional; conditions: read-out: ED50 (the source's name)
MCF7 [14] = assay: Cytotoxicity against human MCF7 cells assessed as reduction in cell viability; format: functional, cell-based

Work on `C=CC(C)(C)c1[nH]c2ccccc2c1/C=C1\NC(=O)[C@@]2(CC[C@]3(O)c4cc(C)cc(O)c4C(=O)c4c(O)cc(OC)c2c43)NC1=O` yielded an IC50 (HepG2 [1]) of 37.3 µM and an IC50 (SF-268) of 30.1 µM.
With `C[C@H]1CN2CC[C@]34C[C@@]5(C(=O)Nc6c5ccc5c6C(=O)CC(C)(C)O5)C(C)(C)[C@@H]3[C@@]2(C1)C(=O)N4C` the IC50 [2] was 2.8 µM and the IC50 (HepG2 [3]) was 3.7 µM.
`C=CC(C)(C)c1[nH]c2ccccc2c1/C=C1\NC(=O)[C@@]2(CC[C@@]3(O)c4cc(OC)cc(O)c4C(=O)c4c(O)cc(C)c2c43)NC1=O` gave an IC50 (HepG2 [1]) of 15 µM and an IC50 (SF-268) of 12.5 µM.
With `C=CC(C)(C)[C@@]12C[C@H]3C(=O)N[C@@H](Cc4ccc(O)cc4)C(=O)N3[C@@H]1N([C@H]1O[C@]3(C[C@@H]1NC(=O)/C=C/C(C)CC(C)CCCCCC)[C@@H]1O[C@@H]1[C@](O)(CC(C)=O)[C@@H]1O[C@@H]13)c1ccccc12` (some centres undefined) the IC50 (BGC-823) was 16.6 µM, the IC50 (K562 [4]) was 19.9 µM and the IC50 (HL-60) was 12.1 µM. It also gave an IC50 (HeLa) of 17.7 µM and an IC50 (MCF7 [5]) of 8 µM.
`COC1=C(C)C(=O)C2=C(C1=O)[C@H]1[C@@H]3CC4=C(C(=O)C(OC)=C(C)C4=O)[C@H](COC(C)=O)N3[C@@H](O)[C@@H](C2)N1C` gave an IC50 (HCT-116) of 0.00057 µM, an IC50 (A549 [6]) of 0.0125 µg/mL (≈ 0.0237 µM) and an IC50 (SK-MEL-28) of 0.0125 µg/mL (≈ 0.0237 µM). For the same molecule, the IC50 (QG-56) was 0.00076 µM, the IC50 (P388 [7]) was 0.0125 µg/mL (≈ 0.0237 µM) and the IC50 (BC) was 0.0025 µM. It also gave an IC50 (DU-145) of 0.00049 µM and an IC50 (HT-29) of 0.0125 µg/mL (≈ 0.0237 µM).
`CO[C@H]1CC(=O)[C@@H]2C[C@@]34SS[C@]5(C[C@H]6C(=O)C[C@H](OC)[C@H](O)[C@H]6N5C3=O)C(=O)N4[C@@H]2[C@H]1O` gave an IC50 at 72 h [8] of 4.88 µM.
Molecule `CS[C@]1(CO)C(=O)N2[C@H]3C(=CC=C[C@@H]3O)C[C@@]2(SC)C(=O)N1C` [BIS(DETHIO)BIS(METHYLTHIO)GLIOTOXIN] has an IC50 (PC-3) of 0.39 µM and an IC50 (U-937) of 0.2 µM.
For `COC1=C(C)C(=O)C2=C(C1=O)[C@@H]1[C@@H]3CC4=C(C(=O)C(OC)=C(C)C4=O)[C@H](CO)N3[C@@H](C#N)[C@H](C2)N1C` [JOURNNAMYCIN A], the IC50 (HCT-116) was 0.013 µM, the IC50 (QG-56) was 0.059 µM and the IC50 (NCI-H460) was 8 µM. The IC50 (A549 [9]) was 3.1 µM, the IC50 (NCI-H23) was 2.3 µM and the IC50 (DU-145) was 0.029 µM. For the same molecule, the IC50 at 72 h [10] was 14.8 µM.
Work on `C=CC(C)(C)[C@@]12C[C@H]3C(=O)N[C@@H](Cc4ccccc4)C(=O)N3[C@@H]1N([C@H]1O[C@]3(C[C@@H]1NC(=O)/C=C/C(C)CC(C)CCCCCC)[C@@H]1O[C@@H]1[C@](O)(CC(C)=O)[C@@H]1O[C@@H]13)c1ccccc12` (some centres undefined) yielded an IC50 (BGC-823) of 8 µM, an IC50 (K562 [4]) of 11.4 µM and an IC50 (HL-60) of 5.4 µM. It also gave an IC50 (HeLa) of 9.5 µM and an IC50 (MCF7 [5]) of 5.4 µM.
Molecule `C[C@]12NC(=O)[C@@H](Cc3c1[nH]c1ccccc31)n1c2nc2ccccc2c1=O` has an IC50 [11] of 38.8 µM, an IC50 (L5178Y) of 3.6 µM and an IC50 (K562 [12]) of 15 µM.
Molecule `CS[C@H]1C(=O)N2[C@H]3Nc4ccccc4[C@@]3(c3c[nH]c4ccccc34)[C@H](O)[C@]2(SC)C(=O)N1C` [BIONECTIN C] has an EC50 (P388 [13]) of 6.5 µg/mL (≈ 13.5 µM).
`COc1ccc2c3c([nH]c2c1)[C@H](C=C(C)C)N1C(=O)[C@]2(O)CCCN2C(=O)[C@@]1(O)[C@H]3OC` gave an IC50 (MCF7 [14]) of 7.6 µM.
